Measurements reported in patent publication US12599596B2, “Anti-tumor pharmaceutical composition based on immune checkpoint blockade and use thereof” (Shanghai Hui Tian Jin Ze Biotech Co., Ltd., priority 2023, dated 2026).

What was measured:
Experiment in all cases: EdU proliferation of tumor cells treated with CBD
Type in all cases: cell-based
Details in all cases: CBD 5, 10, 20 μM, 24 h
H1975 lung cancer cells = system: H1975 lung cancer cells
Experimental: (§1) Different types of tumor cells (RKO colorectal cancer cells, H1975 lung cancer cells, and A549 lung cancer cells) in the logarithmic growth phase were respectively inoculated into a 96-well plate at an inoculum density of 5×10^3 per well, and then, the tumor cells were placed into an incubator at 37° C. and 5% CO2 for incubation for 24 h; a CBD mother solution (10 mM) was respectively diluted with culture medium to 5 μM, 10 μM, or 20 μM, and the culture medium in the 96-well plate was aspirated off, 100 μL of culture medium containing different concentrations of CBD was added to each well, a control well (0 μM CBD) was set, and the cells were continuously incubated for 24 h. After the culture was completed, the quantity of proliferating tumor cells was detected with an EdU kit (Beyotime, C0085S). Finally, a high-content imaging analysis system was used for photographing and the data were counted.

[1] = system: RKO colorectal cancer cells
Experimental: as §1

A549 lung cancer cells = system: A549 lung cancer cells
Experimental: as §1

Measured: toxicity to tumor cells (proliferation, EdU fluorescence intensity)

C=C(C)[C@@H]1CCC(C)=C[C@H]1c1c(O)cc(CCCCC)cc1O [CBD, cannabidiol]
not significantly toxic: all assays above
